Data: patent US12410179B2, “Modulators of TNF alpha activity and uses thereof” (RayThera, Inc., priority 2023, dated 2025)
pIC50: −log10 of the molar value. Where two headings read alike, the source gives them in different places.

Molecular target: TNFα (Homo sapiens, UniProt P01375)
Assay: HEK-Blue hTNFα reporter assay
Format: cell-based
Set-up: purchased R&D biosystem (R&D Systems) 210-TA-020/CF
Conditions: HEK-Blue hTNFα reporter cells; for Emax: read-out: TNFα reporter, Emax
Outline: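 IC50 from 4-parameter regression of % inhibition, with OD620 of secreted SEAP (QUANTI-Blue, 1 h) referenced to cells with and without hTNFα. HEK-Blue TNFα reporter cells were exposed 24 h to compound premixed 1 h with hTNFα ([…]).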

[1] = SEAP readout, read-out: IC50 Range

TNFα, sequence (P01375 77-233 limits assumed): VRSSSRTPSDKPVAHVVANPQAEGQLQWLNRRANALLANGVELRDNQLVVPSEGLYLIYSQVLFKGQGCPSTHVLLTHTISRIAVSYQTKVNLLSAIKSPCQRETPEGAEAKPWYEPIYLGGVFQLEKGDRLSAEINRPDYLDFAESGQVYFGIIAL

Row | Structure (SMILES) | pIC50 [1] | Emax [%] | pIC50 (read-out: TNFα reporter, IC50)
1 | CN1C(=O)c2cccc(OC(F)F)c2[C@H]2C[C@@H]1c1nn3ccc(-c4cnc([C@]5(O)CC[C@H](O)C5)nc4)cc3c12 [Example 111] | > 7.60 | – | –
2 | CN1C(=O)c2cccc(OC(F)F)c2[C@H]2C[C@@H]1c1nn3cnc(-c4cnc([C@]5(N)C[C@@](C)(C#N)C5)c(F)c4)cc3c12 [Example 59] | > 7.60 | 98 | 8.39
3 | CN1C(=O)c2cccc(OC(F)F)c2[C@H]2C[C@@H]1c1nn3ccc(-c4cnc([C@@]5(O)CC[C@H](O)C5)nc4)cc3c12 [Example 102] | > 7.60 | – | –
4 | CN1C(=O)c2cccc(OC(F)F)c2[C@H]2C[C@@H]1c1nc3ccc(-c4cnc([C@]5(N)C[C@@](C)(C#N)C5)nc4)cc3n12 [Comp. Ex #5, reference compound] | – | 83 | 7.79
5 | CN1C(=O)c2cccc(OC(F)F)c2[C@H]2C[C@@H]1c1nn3cc(F)c(-c4cnc(C5(N)CCC5)nc4)nc3c12 [Example 23] | > 7.60 | – | –
6 | CN1C(=O)c2cccc(OC(F)F)c2[C@H]2C[C@@H]1c1nn3ccc(-c4cnc([C@@](O)(CC#N)C(F)F)nc4)cc3c12 [Example 79] | > 7.60 | – | –
7 | [2H]C([2H])([2H])N1C(=O)c2cccc(OC(F)F)c2[C@H]2C[C@@H]1c1nn3ccc(-c4cnc([C@]5(O)C[C@@](C)(O)C5)nc4)cc3c12 [Example 33] | > 7.60 | – | –
8 | CN1C(=O)c2cccc(OC(F)F)c2[C@H]2C[C@@H]1c1nn3ccc(-c4ccc(S(=N)(=O)C5CC5)nc4)cc3c12 (some centres unmarked) [Example 68] | > 7.60 | – | –
9 | [2H]C([2H])([2H])N1C(=O)c2cccc(OC(F)F)c2[C@H]2C[C@@H]1c1nn3ccc(-c4cnc(C5(N)CCC5)nc4)nc3c12 [Example 52] | > 7.60 | – | –
10 | CN1C(=O)c2cccc(OC(F)F)c2[C@H]2C[C@@H]1c1nn3ccc(-c4cnc([C@]5(N)C[C@@](C)(C#N)C5)nc4)nc3c12 [Example 7, (1R,3s)-3-amino-3-(5-((7R,14S)-1-(difluoromethoxy)-6-methyl-5-oxo-5,6,7,14-tetrahydro-7,14-methanobenzo[c]pyrimido[1′,2′:1,5]pyrazolo[4,3-f]azocin-12-yl)pyrimidin-2-yl)-1-methylcyclobutane-1-carbonitrile] | > 7.60 | – | –
11 | CN1C(=O)c2cccc(OC(F)F)c2[C@H]2C[C@@H]1c1nn3ccc(C4=CCC(C(C)(C)O)CC4)nc3c12 (stereo partly drawn) [Example 8, (7R,14S)-1-(difluoromethoxy)-12-(4-(2-hydroxypropan-2-yl)cyclohex-1-en-1-yl)-6-methyl-6,7-dihydro-7,14-methanobenzo[c]pyrimido[1′,2′:1,5]pyrazolo[4,3-f]azocin-5 (14H)-one] | 7.00 to 7.60 | – | –
12 | CN1C(=O)c2cccc(OC(F)F)c2[C@H]2C[C@@H]1c1nn3cc(F)c(-c4cnc(C5(O)COC5)nc4)cc3c12 [Example 98] | > 7.60 | – | –
13 | [2H]C([2H])([2H])N1C(=O)c2cccc(OC(F)F)c2[C@H]2C[C@@H]1c1nn3cnc(-c4cnc([C@]5(N)C[C@@](C)(C#N)C5)nc4)cc3c12 [Example 61] | > 7.60 | – | –
14 | CN1C(=O)c2cccc(OC(F)F)c2[C@H]2C[C@@H]1c1nn3cnc(-c4cnc([C@]5(O)C[C@@](C)(O)C5)nc4)cc3c12 [Example 32] | > 7.60 | – | –
15 | CN1C(=O)c2cccc(OC(F)F)c2[C@H]2C[C@@H]1c1nn3ccc(-c4cnc(C5(N)CC5)nc4)nc3c12 [Example 6, (7R,14S)-12-(2-(1-aminocyclopropyl)pyrimidin-5-yl)-1-(difluoromethoxy)-6-methyl-6,7-dihydro-7,14-methanobenzo[c]pyrimido[1′,2′:1,5]pyrazolo[4,3-f]azocin-5 (14H)-one] | > 7.60 | – | –
16 | [2H]C([2H])([2H])N1C(=O)c2cccc(OC(F)F)c2[C@H]2C[C@@H]1c1nn3cc(F)c(-c4ccc(P(C)(C)=O)nc4)cc3c12 [Example 113] | > 7.60 | – | –
17 | CN1C(=O)c2cccc(OC(F)F)c2[C@H]2C[C@@H]1c1nn3ccc(-c4cnc([C@]5(N)C[C@@](C)(O)C5)nc4)cc3c12 [Example 28] | > 7.60 | – | –
18 | CN1C(=O)c2cccc(OC(F)F)c2[C@H]2C[C@@H]1c1nn3ccc(-c4cnc(C(O)(CF)CF)nc4)cc3c12 [Example 95] | > 7.60 | – | –
19 | [2H]C([2H])([2H])N1C(=O)c2cccc(OC(F)F)c2[C@H]2C[C@@H]1c1nn3ccc(-c4cnc([C@]5(N)C[C@@](C)(C#N)C5)nc4)cc3c12 [Example 55] | > 7.60 | – | –
20 | C[C@]1(O)C[C@](O)(c2ncc(-c3ccn4nc5c(c4c3)[C@@H]3C[C@H]5NC(=O)c4cccc(OC(F)F)c43)cn2)C1 [Example 38] | > 7.60 | – | –
21 | CN1C(=O)c2cccc(OC(F)F)c2[C@H]2C[C@@H]1c1nc3ccc(-c4cnc(C5(O)CCOCC5)nc4)cc3n12 [Comp. Ex #3, reference compound] | – | 70 | 8.09

Now from value to molecule:

Row | pIC50 [1] | Emax [%] | pIC50 (read-out: TNFα reporter, IC50) | Structure (SMILES)
22 | > 7.60 | – | – | [2H]C([2H])([2H])N1C(=O)c2cccc(OC(F)F)c2[C@H]2C[C@@H]1c1nn3cc(F)c(-c4cnc([C@]5(O)C[C@@](C)(N)C5)nc4)cc3c12 [Example 284]
23 | > 7.60 | – | – | CC(=O)c1cccc2c1[C@H]1C[C@H](c3nn4ccc(-c5cnc(C6(N)CCC6)nc5)cc4c31)N(C)C2=O [Example 314, (7R,14R)-1-acetyl-12-(2-(1-aminocyclobutyl)pyrimidin-5-yl)-6-methyl-6,7-dihydro-7,14-methanobenzo[c]pyrido[1′,2′:1,5]pyrazolo[4,3-f]azocin-5 (14H)-one]
24 | > 7.60 | – | – | [2H]C([2H])([2H])N1C(=O)c2cccc(OC(F)F)c2[C@H]2C[C@@H]1c1nn3cc(F)c(-c4cnc([C@]5(N)C[C@@](C)(C#N)C5)cn4)cc3c12 [Example 200]
25 | > 7.60 | – | – | CN1C(=O)c2cccc(OC(F)F)c2[C@H]2C[C@@H]1c1nn3ccc(C4=CCC(C(C)(C)O)OC4)cc3c12 (stereo in doubt) [Example 318, (7R,14S)-1-(difluoromethoxy)-12-((R)-6-(2-hydroxypropan-2-yl)-5,6-dihydro-2H-pyran-3-yl)-6-methyl-6,7-dihydro-7,14-methanobenzo[c]pyrido[1′,2′:1,5]pyrazolo[4,3-f]azocin-5 (14H)-one]
26 | > 7.60 | – | – | CN1C(=O)c2cccc(OC(F)F)c2[C@H]2C[C@@H]1c1nn3ccc(-c4cnc([C@]5(N)C[C@](C)(C#N)C5)nc4)cc3c12 [Example 167]
27 | > 7.60 | – | – | CN1C(=O)c2cccc(OC(F)F)c2[C@H]2C[C@@H]1c1nn3ccc(-c4cnc([C@]5(N)C[C@@H](O)C5)c(F)c4)cc3c12 [Example 168]
28 | > 7.60 | – | – | [2H]C([2H])([2H])N1C(=O)c2cccc(OC(F)F)c2[C@H]2C[C@@H]1c1nn3cc(C)c(-c4cnc(C(C)(C)N)nc4)cc3c12 [Example 300]
29 | > 7.60 | – | – | [2H]C([2H])([2H])N1C(=O)c2ccc(F)c(OC(F)F)c2[C@H]2C[C@@H]1c1nn3ccc(-c4cnc([C@]5(N)C[C@@](C)(O)C5)nc4)nc3c12 [Example 288]
30 | > 7.60 | – | – | CN1C(=O)c2cccc(OC(F)F)c2[C@H]2C[C@@H]1c1nn3ccc(-c4ncc([C@@H](O)[C@@H]5CCO5)cn4)cc3c12 [Example 129]
31 | > 7.60 | – | – | [2H]C([2H])([2H])N1C(=O)c2cccc(OC(F)F)c2[C@H]2C[C@@H]1c1nn3ccc(-c4cnc(C5(N)COC5)cn4)cc3c12 [Example 247]
32 | > 7.60 | – | – | CN1C(=O)c2cccc(OC(F)F)c2[C@H]2C[C@@H]1c1nn3ccc(-c4cnc([C@]5(O)C[C@](C)(O)C5)nc4)cc3c12 [Example 139]
33 | > 7.60 | – | – | CN1C(=O)c2cccc(OC(F)F)c2[C@H]2C[C@@H]1c1nn3ccc(-c4cnc(N5CCNCC5)nc4)cc3c12 [Example 143]
34 | > 7.60 | – | – | [2H]C([2H])([2H])N1C(=O)c2cccc(OC(F)F)c2[C@H]2C[C@@H]1c1nn3cc(C)c(-c4cnc([C@]5(N)C[C@@](C)(C#N)C5)nc4)nc3c12 [Example 237]
35 | > 7.60 | – | – | [2H]C([2H])([2H])N1C(=O)c2cccc(OC(F)F)c2[C@H]2C[C@@H]1c1nn3ccc(-c4cnc([C@]5(O)C[C@@](C)(N)C5)nc4)cc3c12 [Example 208]
36 | > 7.60 | – | – | CN1C(=O)c2cccc(OC(F)F)c2[C@H]2C[C@@H]1c1nn3ccc(-c4cnc([C@H](O)C5COC5)nc4)cc3c12 [Example 137]
37 | > 7.60 | – | – | [2H]C([2H])([2H])N1C(=O)c2cccc(OC(F)F)c2[C@H]2C[C@@H]1c1nn3ccc(-c4cnc([C@]5(O)C[C@](C)(C#N)C5)nc4)nc3c12 [Example 272]
38 | > 7.60 | – | – | [2H]C([2H])([2H])N1C(=O)c2cccc(OC(F)F)c2[C@H]2C[C@@H]1c1nn3cc(F)c(-c4cnc(C5(N)COC5)nc4)nc3c12 [Example 178]
39 | > 7.60 | – | – | CN1C(=O)c2cccc(OC(F)F)c2[C@H]2C[C@@H]1c1nn3ccc(-c4ncc([C@]5(O)C[C@@](C)(O)C5)cn4)cc3c12 [Example 142]
40 | > 7.60 | – | – | CN1C(=O)c2cccc(OC(F)F)c2[C@H]2C[C@@H]1c1nn3ccc(-c4cnc(S(=N)(=O)C5CC5)cn4)cc3c12 (some centres unmarked) [Example 126]
41 | > 7.60 | – | – | [2H]C([2H])([2H])N1C(=O)c2cccc(OC(F)F)c2[C@H]2C[C@@H]1c1nn3cc(F)c(-c4cnc([C@]5(N)C[C@@](C)(CO)C5)c(F)c4)nc3c12 [Example 268]
42 | > 7.60 | – | – | [2H]C([2H])([2H])N1C(=O)c2ccc(F)c(OC(F)F)c2[C@H]2C[C@@H]1c1nn3ccc(-c4cnc(C(C)(C)N)nc4)nc3c12 [Example 297]
43 | > 7.60 | – | – | CN1C(=O)c2cccc(OC(F)F)c2[C@H]2C[C@@H]1c1nn3ccc(-c4cnc([C@@H](O)C(C)(C)O)nc4)cc3c12 [Example 134]
44 | > 7.60 | – | – | Cc1nc(C2(N)CCC2)ncc1-c1ccn2nc3c(c2c1)[C@@H]1C[C@H]3NC(=O)c2cccc(OC(F)F)c21 [Example 234]
45 | 7.00 to 7.60 | – | – | [2H]C([2H])([2H])N1C(=O)c2cccc(OC(F)F)c2[C@H]2C[C@@H]1c1nn3ccc(-c4cnc([C@@H](N)C5CC5)nc4)nc3c12 [Example 276]
46 | > 7.60 | – | – | [2H]C([2H])([2H])N1C(=O)c2cccc(OC(F)F)c2[C@H]2C[C@@H]1c1nn3cc(F)c(-c4cnc([C@]5(N)C[C@@](C)(O)C5)cn4)cc3c12 [Example 214]
